This experiment in a line: The binding affinity on delta-opioid receptor using [3H]- DPDPE as radioligand.
`N=C(N)NCCN1CC[C@]23c4c5ccc(O)c4O[C@H]2c2[nH]c4c(c2C[C@@]3(O)[C@H]1C5)C[C@@]1(O)[C@H]2Cc3ccc(O)c5c3C1(CCN2CC1CC1)[C@H]4O5` [17-(cyclopropylmethyl)-17'-(2-guanidinoethyl-6,6',7,7'-tetradehydro-4,5:4',5'-diepoxy-6,6'-imino-7,7'-bimorphinan-3,3',14,14'-tetrol] had a Ki of 37 nM.
The same measure for `NCCN1CC[C@]23c4c5ccc(O)c4O[C@H]2c2[nH]c4c(c2C[C@@]3(O)[C@H]1C5)C[C@@]1(O)[C@H]2Cc3ccc(O)c5c3[C@@]1(CCN2CC1CC1)[C@H]4O5` [17-(cyclopropylmethyl)-17'-aminoethyl-6,6',7,7'-tetradehydro-4,5:4',5'-diepoxy-6,6'-imino-7,7'-bimorphinan-3,3',14,14'-tetrol]: 137 nM.
As for `CCCCN1CC[C@]23c4c5ccc(O)c4O[C@H]2c2[nH]c4c(c2C[C@@]3(O)[C@H]1C5)C[C@@]1(O)[C@H]2Cc3ccc(O)c5c3[C@@]1(CCN2CC1CC1)[C@H]4O5` [17-(cyclopropylmethyl)-17'-butyl-6,6',7,7'-tetradehydro-4,5:4',5'-diepoxy-6,6'-imino-7,7'-bimorphinan-3,3',14,14'-tetrol], the Ki is 15 nM.

For the origin of these results see BindingDB's records for doi:10.1021/jm00036a015 (University of Minnesota, 1994).
